{"source": "patent US7939554B2", "about": "“Protein phosphatase inhibitors” (The Cleveland Clinic Foundation, priority 2006, dated 2011)", "key": {"PTPase CD45": {"biological_target": "T1, PTPase CD45 (Homo sapiens, UniProt P08575)", "T1 construct": "endogenous in cells; host or cells: Jurkat", "T1 sequence (P08575 26-1306)": "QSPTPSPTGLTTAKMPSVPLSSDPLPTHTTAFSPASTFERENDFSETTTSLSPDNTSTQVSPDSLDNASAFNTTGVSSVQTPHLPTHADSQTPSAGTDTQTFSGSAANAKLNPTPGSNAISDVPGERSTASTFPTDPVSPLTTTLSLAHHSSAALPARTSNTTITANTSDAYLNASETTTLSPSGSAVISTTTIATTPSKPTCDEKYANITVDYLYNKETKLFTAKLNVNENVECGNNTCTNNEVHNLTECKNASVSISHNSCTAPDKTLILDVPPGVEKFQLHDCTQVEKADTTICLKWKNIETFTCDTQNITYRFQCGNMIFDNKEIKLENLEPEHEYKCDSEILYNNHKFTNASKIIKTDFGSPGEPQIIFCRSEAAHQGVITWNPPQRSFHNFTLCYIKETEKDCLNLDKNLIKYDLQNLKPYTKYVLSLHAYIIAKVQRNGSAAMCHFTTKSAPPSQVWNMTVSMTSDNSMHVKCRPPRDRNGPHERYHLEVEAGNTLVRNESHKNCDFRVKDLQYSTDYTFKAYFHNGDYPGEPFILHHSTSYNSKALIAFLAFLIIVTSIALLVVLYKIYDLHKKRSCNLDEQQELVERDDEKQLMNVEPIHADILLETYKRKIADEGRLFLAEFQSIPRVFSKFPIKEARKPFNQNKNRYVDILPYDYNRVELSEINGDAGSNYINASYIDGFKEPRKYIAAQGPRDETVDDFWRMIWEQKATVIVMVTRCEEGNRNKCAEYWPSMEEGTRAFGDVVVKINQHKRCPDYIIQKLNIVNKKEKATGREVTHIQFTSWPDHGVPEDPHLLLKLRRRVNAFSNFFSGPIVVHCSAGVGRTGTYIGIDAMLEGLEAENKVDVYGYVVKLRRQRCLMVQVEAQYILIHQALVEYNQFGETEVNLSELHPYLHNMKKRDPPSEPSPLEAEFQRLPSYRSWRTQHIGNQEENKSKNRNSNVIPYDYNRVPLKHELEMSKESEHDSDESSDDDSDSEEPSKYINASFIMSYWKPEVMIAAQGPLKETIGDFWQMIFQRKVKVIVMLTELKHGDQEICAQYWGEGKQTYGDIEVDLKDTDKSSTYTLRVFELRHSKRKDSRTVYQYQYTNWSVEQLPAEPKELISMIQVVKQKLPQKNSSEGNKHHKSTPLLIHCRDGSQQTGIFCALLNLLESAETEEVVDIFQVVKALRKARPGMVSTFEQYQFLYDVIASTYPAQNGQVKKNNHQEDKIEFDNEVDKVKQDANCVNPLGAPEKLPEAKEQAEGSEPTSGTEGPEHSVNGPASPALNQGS", "experiment": "pLck-pY505 levels in L5-treated Jurkat cells", "type": "cell-based", "settings": "FIG. 4D", "experimental": "Jurkat cells in culture medium (3×10^6 cells/ml, 1 ml/tube) were treated with agents for designated times at room temperature. After brief centrifuging in a microfuge (4,000 rpm, 2 min), the cell pellet was lysed on ice for 30 min in […] of cold lysis buffer (1% NP40, 50 mM Tris, pH 7.4, 150 mM NaCl, 20 mM NaF, 0.2 mM Na3VO4 and 1 mM Na3MO4) containing a cocktail of proteinase inhibitors (Sigma, 1 tablet/10 ml). The lysates were cleared by centrifuging (14,000 rpm, 10 min) in a microfuge at 4° C. to remove insoluble parts, mixed with equal volume of 2×SDS-PAGE sample buffer, boiled for 5 min and analyzed (˜3×10^5 cells/well) by SDS-PAGE/Western blotting. Relative intensities of phosphotyrosine bands were quantified through densitometry analysis.\nTo assess the effects of L5 on other phosphatases, pERK1/2 and pLck-pY505 in L5-treated Jurkat cells were quantified. SHP-2 is known to be a positive mediator of pERK1/2 whereas pLck-pY505 is dephosphorylated by PTPase CD45."}, "[1]": {"experiment": "toxicity in mice (viability)", "type": "in vivo, mouse", "settings": "10 mg/kg, daily, s.c., two weeks", "experimental": "FIG. 3 illustrates differential toxicity of L5 and L6. Jurkat cells were cultured in the absence or presence of lead compound #5 (L5) (A) or #6 (L6) (B) for 6 days prior to quantification of cell growth by MTT assays. Data represent mean±SD of triplicate samples. Balb/c mice were treated with L5 (˜10 mg/kg body weight, s. c., daily, M-F/wk) for two weeks to assess its toxicity in vivo (C).\nSpleens were harvested one hour post-treatment on day 4 and processed into splenocytes, which were used for assessing pLck levels by SDS-PAGE/Western blotting and for quantification of IFNγ+ cells by ELISPOT assays. Mice were also treated with L5 (˜10 mg/kg body weight, daily, s. c., n=2) to evaluate the toxicity of the compounds in vivo."}, "mouse splenocytes": {"tested_on": "mouse splenocytes", "experiment": "induction of IFNγ+ cells in mouse splenocytes in vitro (ELISPOT)", "type": "cell-based", "experimental": "The splenocytes were cultured in RPMI 1640 medium supplemented with 10% FCS in the absence or presence of designated agents for 16 hrs in flat-bottom 96-well plates coated with a monoclonal antibody specific for mouse IFNγ (mouse IFNγ ELISPOT Kit, R & D System). The plates were then processed for in situ detection of IFNγ+ cells by ELISA following the manufacturer's procedure. Scanning and counting of IFNγ+ cells in the plates were accomplished using an automatic ELISPOT reader with Immunospot2 software (Cellular Technology Ltd). Mouse splenocytes were also untreated or treated with agents for 16 hrs in culture dishes and then stained with appropriate isotype control antibodies or FICT-labeled anti-CD3 monoclonal antibody (BD) plus PE-labeled monoclonal antibody (BD) for intracellular IFNγ following established procedures. The stained samples were washed 3 times, re-suspended in 200 μl of 1% para-formaldehyde solution and analyzed (20,000 cells/sample) using a BD FACS Caliburs cytometer and WinList software.\nThe splenocytes were cultured in RPMI 1640 medium supplemented with 10% FCS in the absence or presence of designated agents for 16 hrs in flat-bottom 96-well plates coated with a monoclonal antibody specific for mouse IFNγ (mouse IFNγ ELISPOT Kit, R & D System). The plates were then processed for in situ detection of IFNγ+ cells by ELISA following the manufacturer's procedure. Scanning and counting of IFNγ+ cells in the plates were accomplished using an automatic ELISPOT reader with Immunospot2 software (Cellular Technology Ltd)."}}, "data": [{"molecule": "O=C1C=CC(=O)C(c2cc(Cl)ccc2Cl)=C1", "note": "[L5]", "values": [{"measurement": "effect on pLck-pY505", "setting": "PTPase CD45", "value": "little effects"}, {"measurement": "mouse viability", "setting": "[1]", "value": "all alive"}, {"measurement": "induction of IFNγ+ cells", "setting": "mouse splenocytes; 0.001 μg/ml, 16 hrs", "value": "inactive"}, {"measurement": "increase of IFNγ+ cells in splenocytes", "setting": "mouse splenocytes; 1 μg/ml, 16 hrs", "value": "~14", "unit": "fold"}, {"measurement": "increase of IFNγ+ cells in splenocytes", "setting": "mouse splenocytes; 3 μg/ml, 16 hrs", "value": "~26", "unit": "fold"}, {"measurement": "increase of IFNγ+ cells in splenocytes", "setting": "mouse splenocytes; 10 μg/ml, 16 hrs", "value": "~17", "unit": "fold"}, {"measurement": "increase of IFNγ+ cells in splenocytes", "setting": "mouse splenocytes; 30 μg/ml, 16 hrs", "value": "~10", "unit": "fold"}, {"measurement": "minimal effective dose for IFNγ+ cell induction", "setting": "mouse splenocytes; FIG. 11", "value": 10, "unit": "ng/mL"}, {"measurement": "induction of IFNγ+ cells", "setting": "mouse splenocytes; low doses (0.01 to 1 μg/ml), same mouse, FIG. 16", "value": "3-4 fold"}, {"measurement": "effectiveness relative to SSG in inducing IFNγ+ cells", "setting": "mouse splenocytes; maximal induction at a comparable dose, mouse splenocytes", "value": "~58", "unit": "fold"}, {"measurement": "B16 tumor growth inhibition versus control", "setting": "B16 melanoma tumors; 1 mg/kg/daily, M-F/wk, oral, day 22", "value": "~9", "unit": "%"}, {"measurement": "growth inhibition of B16 tumors versus control", "setting": "B16 melanoma tumors; 3 mg/kg/day, oral, M-F/week, end of study", "value": "~83", "unit": "%"}, {"measurement": "tolerance of treated tumor mice (behavior, gross anatomy)", "setting": "B16 melanoma tumors; mouse, in vivo", "value": "no apparent abnormality"}]}]}
